Values joined by “and” are separate entries in the source; they are usually repeats but may differ in a detail not shown here. Equal entries are not always repeated. Active and inactive are the calls of the source.
How the values were obtained:
[1] = target: T1, Heat shock 70 kDa protein 1A (Homo sapiens, UniProt P0DMV8); assay: small-molecule inhibition of Hsp70 – biochemical, TR-FRET (AID 786)
Bcl-2-like protein 10 [2] = target: T2, Bcl-2-like protein 10 (Homo sapiens, UniProt Q9HD36); assay: Bcl-B/TR3 peptide binding disruption – biochemical, fluorescence polarization, FITC-TR3 peptide, selectivity assay for Bfl-1 inhibitor project, primary screen (AID 748);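 also: fluorescence polarization from a fluorescein-labelled TR3 peptide binding purified Bcl-B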
T2 sequence (Q9HD36 whole entry): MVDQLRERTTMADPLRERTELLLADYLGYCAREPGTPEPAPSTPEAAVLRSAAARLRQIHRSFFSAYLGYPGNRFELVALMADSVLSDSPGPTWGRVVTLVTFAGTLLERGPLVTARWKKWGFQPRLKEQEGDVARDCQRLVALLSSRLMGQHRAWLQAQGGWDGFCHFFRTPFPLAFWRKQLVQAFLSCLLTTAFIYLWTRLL

[3] = target: T1, Heat shock 70 kDa protein 1A; assay: small molecules displacing fluorescent ligand from Hsp70 – biochemical, fluorescence polarization, primary screen (AID 583)
[4] = target: T3, Tyrosine-protein phosphatase non-receptor type 7 (Homo sapiens, UniProt P35236); assay: redox-active compounds inhibiting HePTP phosphatase – biochemical, fluorescence, mechanism study (AID 2068); format: functional
T3 sequence (P35236 whole entry): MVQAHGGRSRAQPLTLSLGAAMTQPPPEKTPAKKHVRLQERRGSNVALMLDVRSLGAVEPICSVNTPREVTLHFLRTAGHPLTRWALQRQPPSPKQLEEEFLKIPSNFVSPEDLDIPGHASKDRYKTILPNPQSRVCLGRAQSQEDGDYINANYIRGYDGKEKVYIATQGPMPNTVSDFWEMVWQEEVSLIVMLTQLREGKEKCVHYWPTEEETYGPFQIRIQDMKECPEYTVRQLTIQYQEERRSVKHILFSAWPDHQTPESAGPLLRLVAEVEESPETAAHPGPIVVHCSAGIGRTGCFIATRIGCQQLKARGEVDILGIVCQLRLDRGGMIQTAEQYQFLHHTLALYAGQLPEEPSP

[5] = NIH-3T3 fibroblast cytotoxicity, dose response, cytotoxicity control, cell-based, fluorescence, Alamar Blue, secondary assay (AID 2327); format: functional;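 also: NIH-3T3 mouse fibroblasts cultured with fluconazole at 8 µg/mL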
[6] = target: T4, Mannose-6-phosphate isomerase (Homo sapiens, UniProt P34949); assay: MPI enzyme activity inhibition – biochemical, fluorescence intensity, coupled assay, primary screen (AID 1209)
T4 sequence (P34949 whole entry): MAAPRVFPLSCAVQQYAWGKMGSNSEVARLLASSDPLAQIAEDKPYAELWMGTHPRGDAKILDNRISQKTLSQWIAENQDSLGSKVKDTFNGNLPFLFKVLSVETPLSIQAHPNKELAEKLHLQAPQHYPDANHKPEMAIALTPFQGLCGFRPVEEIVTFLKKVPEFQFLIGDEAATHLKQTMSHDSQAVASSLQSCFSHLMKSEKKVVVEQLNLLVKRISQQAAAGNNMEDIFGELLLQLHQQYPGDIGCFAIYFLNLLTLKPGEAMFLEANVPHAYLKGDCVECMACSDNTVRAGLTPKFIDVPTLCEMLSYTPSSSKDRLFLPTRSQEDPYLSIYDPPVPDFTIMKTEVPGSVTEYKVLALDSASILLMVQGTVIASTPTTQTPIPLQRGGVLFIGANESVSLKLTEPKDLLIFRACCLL

Protein Tat = target: T5, Protein Tat (Human immunodeficiency virus type 1 group M subtype B (isolate HXB2)(HIV-1), UniProt P04608); format: functional;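 also: tat binding to TAR RNA read out by fluorescence polarization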
T5 sequence (P04608 whole entry): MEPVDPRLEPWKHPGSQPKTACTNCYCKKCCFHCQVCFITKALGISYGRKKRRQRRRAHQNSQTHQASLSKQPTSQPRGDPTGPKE

[7] = viability loss in THP-1 monocytes – THP-1 cells, cytotoxicity control for Vif-APOBEC3G degradation inhibitor project, dose response (AID 1117359); format: functional; details: THP-1
Estrogen receptor = target: T6, Estrogen receptor (Homo sapiens, UniProt P03372); assay: ERα coactivator recruitment enhancers – biochemical, TR-FRET, ERα LBD, dose response (AID 737)
T6 sequence (P03372 whole entry): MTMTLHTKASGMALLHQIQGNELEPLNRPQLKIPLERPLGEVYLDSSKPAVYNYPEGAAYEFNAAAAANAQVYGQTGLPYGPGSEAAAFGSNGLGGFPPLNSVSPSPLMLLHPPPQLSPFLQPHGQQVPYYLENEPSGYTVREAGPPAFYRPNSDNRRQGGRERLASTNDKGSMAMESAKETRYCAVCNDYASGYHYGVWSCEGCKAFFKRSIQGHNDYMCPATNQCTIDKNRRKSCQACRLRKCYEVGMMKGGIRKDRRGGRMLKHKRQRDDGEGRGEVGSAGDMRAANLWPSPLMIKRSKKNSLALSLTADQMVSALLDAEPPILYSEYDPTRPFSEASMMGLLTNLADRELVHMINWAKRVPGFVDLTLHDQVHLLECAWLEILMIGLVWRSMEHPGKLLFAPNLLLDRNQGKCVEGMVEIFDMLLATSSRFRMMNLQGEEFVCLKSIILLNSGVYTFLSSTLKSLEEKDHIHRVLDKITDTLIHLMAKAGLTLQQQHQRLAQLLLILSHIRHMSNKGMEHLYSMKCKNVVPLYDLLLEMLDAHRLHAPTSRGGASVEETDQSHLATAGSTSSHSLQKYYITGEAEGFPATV

[8] = target: Potassium voltage-gated channel subfamily KQT member 2 (Rattus norvegicus, UniProt O88943, W236L); assay: potentiation of rat KCNQ2 current – cell-based, automated electrophysiology, mechanism study for KCNQ2 potentiator project, dose response (AID 2603); format: functional
[9] = viability of uninfected HEp-2 cells – cell-based, HTS, cytotoxicity control for RSV inhibitor project, dose response (AID 2410); format: functional; details: human respiratory syncytial virus
[10] = Luminescence Cell-Based Dose Confirmation HTS to Identify Activators of 5'UTR Stem-Loop Driven Alpha-Synuclein mRNA Translation in H4 Neuroglioblastoma Cells. [Related pubchem assays: 1829 (Project Summary), 1814 (Primary HTS)]; format: functional
[11] = Luminescence Cell-Based Dose Response HTS to Identify Activators of Luciferase Translation or Activity in H4 […] Cells. [Related pubchem assays: 1829 (Project Summary), 1814 (Primary HTS)]; format: functional
H4 = assay: Luminescence Cell-Based Dose Response HTS to Identify Activators of 5'UTR Stem-Loop Driven Prion Protein mRNA Translation in H4 Neuroglioblastoma Cells. [Related pubchem assays: 1829 (Project Summary), 1814 (Primary HTS)]; format: functional; details: Homo sapiens
Vero = assay: cells; format: functional, cell-based; details: Chlorocebus sabaeus
[12] = target: Sphingosine 1-phosphate receptor 2 (Homo sapiens, UniProt O95136); assay: Dose Response Cell Based Assay for Agonists of the S1P2 Receptor of Purchased Analogues. [Related pubchem assays: 729, 843, 854, 736 ]; format: functional
Leucine aminopeptidase = target: T7, Leucine aminopeptidase (Plasmodium falciparum 3D7, UniProt Q8IL11); assay: P. falciparum M17LAP inhibitors, primary screen, biochemical, fluorogenic H-Leu-NHMec substrate, 1536-well (AID 1619); format: functional
T7 sequence (Q8IL11 whole entry): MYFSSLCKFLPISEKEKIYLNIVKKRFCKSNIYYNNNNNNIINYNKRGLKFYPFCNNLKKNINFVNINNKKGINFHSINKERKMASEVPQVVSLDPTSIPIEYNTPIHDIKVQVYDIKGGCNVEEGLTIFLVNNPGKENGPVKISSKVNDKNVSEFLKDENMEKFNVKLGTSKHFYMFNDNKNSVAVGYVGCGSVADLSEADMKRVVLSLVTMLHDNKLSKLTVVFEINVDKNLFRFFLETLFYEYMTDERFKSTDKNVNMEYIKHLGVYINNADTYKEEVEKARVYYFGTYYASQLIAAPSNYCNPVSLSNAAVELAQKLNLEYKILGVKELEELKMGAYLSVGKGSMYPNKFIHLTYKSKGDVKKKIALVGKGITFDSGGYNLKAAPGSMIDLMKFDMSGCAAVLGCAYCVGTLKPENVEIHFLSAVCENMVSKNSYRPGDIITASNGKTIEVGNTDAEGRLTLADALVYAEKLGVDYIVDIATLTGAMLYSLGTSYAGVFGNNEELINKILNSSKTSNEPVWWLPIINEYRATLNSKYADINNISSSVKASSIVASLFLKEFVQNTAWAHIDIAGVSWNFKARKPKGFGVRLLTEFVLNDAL

Aspartyl aminopeptidase = Aspartyl aminopeptidase (Plasmodium falciparum 3D7, UniProt Q8I2J3); assay: Counterscreen for inhibitors of M1 and M17 aminopeptidases: QFRET-based biochemical high throughput dose response assay for inhibitors of the Plasmodium falciparum M18 Aspartyl Aminopeptidase (PFM18AAP). [Related PubChem assays: 1619 (Screening assay (M17LAP inhibitors).), 1445 (Screening assay (M1AAP inhibitors).)]
Procathepsin L = Procathepsin L (Homo sapiens, UniProt P07711); assay: CTSL1 protease inhibition – biochemical, QFRET, 1536-well, counter-screen for M1/M17 aminopeptidase inhibitor project, dose response (AID 2214)
[13] = target: T8, Short transient receptor potential channel 4 (Mus musculus, UniProt Q9QUQ5); assay: block of DAMGO-driven TRPC4 calcium entry – cell-based, HEK293 TRPC4/mu-opioid, Fluo-4 calcium, dose response (AID 434942); format: functional;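 also: potency of inhibitors blocking the TRPC4 calcium response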
T8 sequence (Q9QUQ5 whole entry): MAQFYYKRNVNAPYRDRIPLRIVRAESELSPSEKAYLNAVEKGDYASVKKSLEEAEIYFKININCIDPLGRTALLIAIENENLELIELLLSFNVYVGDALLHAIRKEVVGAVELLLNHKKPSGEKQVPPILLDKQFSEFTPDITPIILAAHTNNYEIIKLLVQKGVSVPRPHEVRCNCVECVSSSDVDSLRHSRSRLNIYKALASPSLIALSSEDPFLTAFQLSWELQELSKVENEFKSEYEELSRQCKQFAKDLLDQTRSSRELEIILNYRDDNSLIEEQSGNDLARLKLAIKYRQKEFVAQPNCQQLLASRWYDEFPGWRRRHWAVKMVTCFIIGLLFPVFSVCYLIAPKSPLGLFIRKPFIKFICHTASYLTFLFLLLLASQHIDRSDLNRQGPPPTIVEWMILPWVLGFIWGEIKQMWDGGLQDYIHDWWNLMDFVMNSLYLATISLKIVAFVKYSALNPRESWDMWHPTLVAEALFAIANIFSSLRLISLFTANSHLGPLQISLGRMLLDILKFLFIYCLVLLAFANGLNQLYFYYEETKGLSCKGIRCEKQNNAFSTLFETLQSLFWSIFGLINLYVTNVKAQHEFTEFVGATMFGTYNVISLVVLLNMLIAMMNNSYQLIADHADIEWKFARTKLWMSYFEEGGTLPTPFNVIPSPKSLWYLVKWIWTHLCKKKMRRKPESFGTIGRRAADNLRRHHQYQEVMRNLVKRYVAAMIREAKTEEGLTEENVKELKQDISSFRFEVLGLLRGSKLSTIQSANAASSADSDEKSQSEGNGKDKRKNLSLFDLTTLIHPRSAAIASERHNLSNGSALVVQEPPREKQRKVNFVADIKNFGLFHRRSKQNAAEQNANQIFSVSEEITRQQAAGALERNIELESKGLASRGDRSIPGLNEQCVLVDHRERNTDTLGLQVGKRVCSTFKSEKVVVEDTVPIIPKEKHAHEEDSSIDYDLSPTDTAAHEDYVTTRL

[14] = target: T9, Neuropeptide Y receptor type 2 (Homo sapiens, UniProt P49146); assay: IC50 for human NPY-Y2 blockade – cell-based, counter-screen for NPY-Y1 antagonist project, dose response (AID 1278); format: functional
[15] = target: T10, Neuropeptide Y receptor type 1 (Homo sapiens, UniProt P25929); assay: IC50 of human NPY-Y1 blockers – cell-based, dose response (AID 1277); format: functional
[16] = target: Potassium voltage-gated channel subfamily KQT member 2 (Rattus norvegicus, UniProt O88943); assay: blockers of KCNQ2 channel current – cell-based, automated electrophysiology, set II, rat KCNQ2, dose response (AID 588637); format: functional
Bcl-2-like protein 10 [17] = target: T2, Bcl-2-like protein 10; assay: Concentration-response of Bcl-B inhibitors by biochemical FP with TR3 (AID 1243); format: functional
NS3 = NS3 (Hepatitis C virus, UniProt A3EZJ3); assay: NS3h DNA-binding inhibition IC50 – biochemical, fluorescence polarization, ChemBridge library, dose response (AID 743264)
[18] = target: T10, Neuropeptide Y receptor type 1; format: functional
[19] = target: T9, Neuropeptide Y receptor type 2; format: functional, cell-based

T1 sequence (P0DMV8 whole entry): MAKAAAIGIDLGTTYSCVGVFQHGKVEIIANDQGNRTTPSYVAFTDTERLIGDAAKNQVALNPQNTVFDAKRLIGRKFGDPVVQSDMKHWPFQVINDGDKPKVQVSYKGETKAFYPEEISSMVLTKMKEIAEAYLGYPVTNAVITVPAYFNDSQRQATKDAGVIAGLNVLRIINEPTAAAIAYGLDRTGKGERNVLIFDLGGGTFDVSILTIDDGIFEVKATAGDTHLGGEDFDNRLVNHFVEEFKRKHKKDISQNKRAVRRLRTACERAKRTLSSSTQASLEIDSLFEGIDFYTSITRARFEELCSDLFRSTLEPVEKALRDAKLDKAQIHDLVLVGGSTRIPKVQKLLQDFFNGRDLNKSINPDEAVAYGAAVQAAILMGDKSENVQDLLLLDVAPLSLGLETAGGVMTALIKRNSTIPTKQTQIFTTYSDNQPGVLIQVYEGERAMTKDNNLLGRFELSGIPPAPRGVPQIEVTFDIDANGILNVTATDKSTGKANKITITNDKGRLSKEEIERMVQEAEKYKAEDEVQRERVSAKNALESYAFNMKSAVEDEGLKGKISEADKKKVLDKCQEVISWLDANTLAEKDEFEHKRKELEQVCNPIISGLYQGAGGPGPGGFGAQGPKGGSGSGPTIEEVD
T10 sequence (P25929 whole entry): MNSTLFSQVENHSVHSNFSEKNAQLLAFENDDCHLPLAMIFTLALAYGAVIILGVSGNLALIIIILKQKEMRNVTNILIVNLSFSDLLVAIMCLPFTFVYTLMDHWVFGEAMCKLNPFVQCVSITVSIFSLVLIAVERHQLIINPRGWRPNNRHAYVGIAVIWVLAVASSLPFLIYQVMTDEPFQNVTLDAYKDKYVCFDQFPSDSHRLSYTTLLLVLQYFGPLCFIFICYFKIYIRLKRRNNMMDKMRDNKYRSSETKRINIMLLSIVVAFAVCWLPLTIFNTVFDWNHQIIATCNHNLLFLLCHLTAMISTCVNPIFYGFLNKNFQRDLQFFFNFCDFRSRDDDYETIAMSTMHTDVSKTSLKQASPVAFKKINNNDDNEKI
T9 sequence (P49146 whole entry): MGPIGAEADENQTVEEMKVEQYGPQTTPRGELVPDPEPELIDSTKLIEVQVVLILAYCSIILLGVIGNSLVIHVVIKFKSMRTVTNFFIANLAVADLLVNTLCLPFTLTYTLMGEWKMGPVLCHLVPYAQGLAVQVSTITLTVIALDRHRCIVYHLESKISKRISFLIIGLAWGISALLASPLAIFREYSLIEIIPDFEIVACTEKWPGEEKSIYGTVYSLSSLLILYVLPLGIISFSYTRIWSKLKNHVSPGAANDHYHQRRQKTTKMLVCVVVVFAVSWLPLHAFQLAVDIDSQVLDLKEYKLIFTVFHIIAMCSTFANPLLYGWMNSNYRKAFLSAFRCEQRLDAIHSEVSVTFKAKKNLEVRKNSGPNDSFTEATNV
Chain of Aspartyl aminopeptidase (Q8I2J3 whole entry): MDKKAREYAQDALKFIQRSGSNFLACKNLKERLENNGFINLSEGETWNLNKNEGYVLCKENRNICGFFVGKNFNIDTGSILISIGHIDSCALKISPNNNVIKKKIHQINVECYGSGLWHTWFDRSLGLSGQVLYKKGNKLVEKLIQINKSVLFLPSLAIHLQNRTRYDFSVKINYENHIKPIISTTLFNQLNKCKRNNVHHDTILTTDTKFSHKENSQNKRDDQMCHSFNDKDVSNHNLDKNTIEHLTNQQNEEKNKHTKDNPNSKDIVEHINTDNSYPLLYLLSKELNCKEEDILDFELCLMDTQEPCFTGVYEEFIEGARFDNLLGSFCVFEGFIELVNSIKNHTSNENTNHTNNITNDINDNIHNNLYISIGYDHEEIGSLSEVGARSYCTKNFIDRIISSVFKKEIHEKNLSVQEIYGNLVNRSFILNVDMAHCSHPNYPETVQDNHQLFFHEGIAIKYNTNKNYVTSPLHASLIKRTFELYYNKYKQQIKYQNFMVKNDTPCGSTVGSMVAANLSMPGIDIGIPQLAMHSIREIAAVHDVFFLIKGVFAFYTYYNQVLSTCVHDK
Chain of Sphingosine 1-phosphate receptor 2 (O95136 whole entry): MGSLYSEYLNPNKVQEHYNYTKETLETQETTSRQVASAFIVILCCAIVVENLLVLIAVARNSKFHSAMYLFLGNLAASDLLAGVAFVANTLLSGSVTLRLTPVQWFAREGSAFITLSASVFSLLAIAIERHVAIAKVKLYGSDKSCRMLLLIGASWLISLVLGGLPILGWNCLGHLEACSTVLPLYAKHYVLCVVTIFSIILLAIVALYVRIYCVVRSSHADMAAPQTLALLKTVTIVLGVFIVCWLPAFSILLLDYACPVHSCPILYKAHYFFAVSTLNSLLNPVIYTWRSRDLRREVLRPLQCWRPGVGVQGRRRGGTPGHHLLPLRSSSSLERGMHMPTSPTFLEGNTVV
Chain of NS3 (A3EZJ3 whole entry): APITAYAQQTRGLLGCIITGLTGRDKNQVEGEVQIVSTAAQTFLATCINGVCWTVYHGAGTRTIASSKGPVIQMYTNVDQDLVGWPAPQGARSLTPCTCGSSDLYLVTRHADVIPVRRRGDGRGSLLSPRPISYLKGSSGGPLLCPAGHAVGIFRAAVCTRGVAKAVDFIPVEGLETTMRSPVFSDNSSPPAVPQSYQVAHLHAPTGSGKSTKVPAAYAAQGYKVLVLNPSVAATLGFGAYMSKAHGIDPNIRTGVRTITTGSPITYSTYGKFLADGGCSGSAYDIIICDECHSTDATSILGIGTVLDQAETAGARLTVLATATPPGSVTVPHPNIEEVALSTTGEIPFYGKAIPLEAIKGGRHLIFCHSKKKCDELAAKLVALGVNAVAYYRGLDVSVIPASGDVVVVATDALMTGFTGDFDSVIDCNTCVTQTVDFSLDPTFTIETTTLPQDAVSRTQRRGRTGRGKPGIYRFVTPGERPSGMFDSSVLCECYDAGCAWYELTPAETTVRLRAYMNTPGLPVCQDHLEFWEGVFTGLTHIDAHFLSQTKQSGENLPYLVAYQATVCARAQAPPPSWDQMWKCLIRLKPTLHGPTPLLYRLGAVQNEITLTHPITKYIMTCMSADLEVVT
Chain of Procathepsin L (P07711 whole entry): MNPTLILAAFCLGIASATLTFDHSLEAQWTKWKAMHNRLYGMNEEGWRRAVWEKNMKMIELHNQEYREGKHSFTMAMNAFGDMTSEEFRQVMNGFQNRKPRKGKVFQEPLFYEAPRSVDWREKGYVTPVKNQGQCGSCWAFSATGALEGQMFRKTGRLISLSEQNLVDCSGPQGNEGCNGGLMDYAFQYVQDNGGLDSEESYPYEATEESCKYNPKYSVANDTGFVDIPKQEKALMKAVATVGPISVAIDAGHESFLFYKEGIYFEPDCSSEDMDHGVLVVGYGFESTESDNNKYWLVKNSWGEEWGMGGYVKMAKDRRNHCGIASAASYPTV
Chain of Potassium voltage-gated channel subfamily KQT member 2 (Rattus norvegicus, UniProt O88943) (O88943 whole entry): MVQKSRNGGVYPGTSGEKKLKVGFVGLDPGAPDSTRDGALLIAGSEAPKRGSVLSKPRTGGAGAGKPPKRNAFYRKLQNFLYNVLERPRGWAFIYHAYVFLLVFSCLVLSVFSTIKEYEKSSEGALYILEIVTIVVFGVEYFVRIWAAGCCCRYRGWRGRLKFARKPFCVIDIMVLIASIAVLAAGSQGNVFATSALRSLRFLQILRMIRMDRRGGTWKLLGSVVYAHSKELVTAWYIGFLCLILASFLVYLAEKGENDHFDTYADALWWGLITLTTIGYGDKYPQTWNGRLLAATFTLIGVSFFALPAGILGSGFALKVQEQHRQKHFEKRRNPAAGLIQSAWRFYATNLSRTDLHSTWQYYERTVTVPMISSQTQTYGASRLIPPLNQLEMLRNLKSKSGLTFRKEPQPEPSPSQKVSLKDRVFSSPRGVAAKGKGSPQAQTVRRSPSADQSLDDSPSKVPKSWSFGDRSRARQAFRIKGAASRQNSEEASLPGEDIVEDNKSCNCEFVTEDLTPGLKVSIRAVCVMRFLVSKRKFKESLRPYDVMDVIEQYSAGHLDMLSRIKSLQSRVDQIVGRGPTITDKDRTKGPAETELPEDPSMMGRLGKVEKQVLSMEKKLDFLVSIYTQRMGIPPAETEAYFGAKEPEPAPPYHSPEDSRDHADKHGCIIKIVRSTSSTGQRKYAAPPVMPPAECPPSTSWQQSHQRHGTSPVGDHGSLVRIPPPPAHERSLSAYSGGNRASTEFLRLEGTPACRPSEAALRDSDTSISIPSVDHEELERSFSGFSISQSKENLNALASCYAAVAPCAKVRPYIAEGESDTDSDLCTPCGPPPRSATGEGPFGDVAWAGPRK
Chain of Potassium voltage-gated channel subfamily KQT member 2 (Rattus norvegicus, UniProt O88943, W236L) (O88943 whole entry W236L): as the sequence (O88943 whole entry) above, with W236L counted along it

O=C(Nc1ccc2nc(-c3ccco3)c(-c3ccco3)nc2c1)N1CCCCCC1
IC50 [1]: > 100 µM (not active) | IC50 (Bcl-2-like protein 10 [2]): 0.725 µM (active) | IC50 [3]: > 100 µM (not active) | IC50 [4]: 1.03 µM (active) and 1.85 µM (active)

COc1ccc(OC)c(Nc2nc(-c3ccc(O)c(O)c3)cs2)c1
EC50 [5]: 6.89 µM (active) | IC50 [6]: > 50 µM (not active) | IC50 (Protein Tat): > 100 µM (inconclusive) | CC50 [7]: 9.32 µM (active)

COc1ccc(C(=O)Nc2nc(O)c3cc(OC)c(OC)cc3n2)cc1
EC50 (Estrogen receptor): 13.3 µM (not active)

CCCCC1CCC(C(=O)NCC(c2ccco2)N2CCOCC2)CC1 (stereo not drawn)
EC50 [8]: 0.92 µM (active)

O=C(Nc1ccc(N2CCCCC2)c(Cl)c1)c1cccnc1
CC50 [9]: 15.4 µM (active) | EC50 [10]: > 120 µM (not active) | EC50 [11]: 6.12 µM (active) | EC50 (H4): > 120 µM (not active) | IC50 (Vero): 8.75 µM (active) | IC50 (cells): 13.6 µM (active)

CC(=O)Nc1ccc(SCC(=O)c2cc(C)n(Cc3ccccc3)c2C)cc1
EC50 [12]: > 30 µM (not active)

N#Cc1c(NC(=O)C2CC(Cl)=CCC2C(=O)O)sc2c1CCCCC2 (stereo not drawn)
IC50 (Leucine aminopeptidase): < 1 µM (active) | IC50 (Aspartyl aminopeptidase): > 73.5 µM (not active) | IC50 (Procathepsin L): > 59.6 µM (not active) | EC50 [13]: 4.73 µM (active)

CCCCOc1cccc(OCCCC)c1C(=O)Nc1cc(C)on1
IC50 [14]: > 35 µM (not active) | IC50 [15]: > 35 µM (not active) | IC50 [16]: 4.03 µM (active)

Cc1ccc(C)n1-c1ccc(OCC(=O)O)cc1
EC50 (Bcl-2-like protein 10 [17]): 8.75 µM (active) | IC50 (NS3): 36 µM (inactive)

COc1ccc(NC(=O)CSc2nc3ccccc3c(=O)n2CCCN2CCCCC2)c(OC)c1
IC50 [18]: 7.62 µM (active) | IC50 [19]: 14.7 µM (not active)

Reference: ChEMBL document CHEMBL1201862, “PubChem BioAssay data set” (2004)
